These results are taken from patent US8193189B2, “Quinoxaline derivatives as tyrosine kinase activity inhibitors” (Novartis AG, priority 2007, dated 2012).

For orientation: IC50 means the concentration that inhibits the measured activity by half.

The target of test [1] is T1, GST-JAK2(808-1132) (Homo sapiens, UniProt O60674).
T1 construct: GST-JAK2(808-1132); purchased Invitrogen (Carlsbad, USA) #4288
Description: EPK JAK-family kinases profiling assay (Caliper mobility shift), JAK2. The format is biochemical. The note with it: ATP 20 μM, 1.8 nM kinase. The text has this:
(§1) All four kinases of the JAK-family kinases were used as purified recombinant GST-fusion proteins, containing the active kinase domains. GST-JAK1(866-1154), GST-JAK3(811-1124), and GST-TYK2(888-1187) were expressed and purified by affinity chromatography at the EPK biology unit. GST-JAK2(808-1132) was purchased from Invitrogen (Carlsbad, USA, #4288).
(§2) The kinase assays were based on the Caliper mobility shift assay using the LabChip 3000 systems. This technology is similar to capillary electrophoresis and uses charge driven separation of substrate and product in a microfluidic chip.
(§3) All kinase reactions were performed in 384 well microtiter plates in a total reaction volume of 18 μl. The assay plates were prepared with 0.1 μl per well of test compound in the appropriate test concentration, as described under the section “preparation of compound dilutions”. The reactions were started by combining 9 μl of substrate mix (consisting of peptide and ATP) with 9 μl of kinase dilution. The reactions were incubated for 60 minutes at 30° C. and stopped by adding 70 μl of stop buffer (100 mM Hepes, 5% DMSO, 0.1% Coating reagent, 10 mM EDTA, 0.015% Brij 35).
(§4) Fluorescently labeled synthetic peptides were used as substrates in all reactions. […] Specific assay conditions are described in Table 1:
(§5) The terminated reactions were transferred to the Caliper LabChip 3000 reader and the turnover of each reaction was measured by determining the substrate/product ratio.
(§6) Test compounds were dissolved in DMSO (10 mM) and transferred into 1.4 mL flat bottom or V-shaped Matrix tubes carrying a unique 2D matrix chip by individual compound hubs. The numbers of these chips were distinctively linked to the individual compound identification numbers. The stock solutions were stored at −20° C. if not used immediately. For the test procedure the vials were defrosted and identified by a scanner whereby a working sheet was generated that guided the subsequent working steps.
(§7) Compound dilutions were made in 96 well plates. This format enabled the assay of maximally 40 individual test compounds at 8 concentrations (single points) including 4 reference compounds. The dilution protocol included the production of pre-dilution plates, master plates and assay plates:
(§8) Pre-dilution plates: 96 polypropylene well plates were used as pre-dilution plates. A total of 4 pre-dilution plates were prepared including 10 test compounds each on the plate positions A1-A10, one standard compound at A11 and one DMSO control at A12. All dilution steps were done on a HamiltonSTAR robot.
(§9) Master plates: 100 μL of individual compound dilutions including standard compound and controls of the 4 “pre-dilution plates” were transferred into a 384 “master plate” including the following concentrations 1′820, 564, 182, 54.6, 18.2, 5.46, 1.82 and 0.546 μM, respectively in 90% of DMSO.
(§10) Assay plates: Identical assay plates were then prepared by pipetting 100 nL each of compound dilutions of the master plates into 384-well “assay plates”. […] The preparation of the master plates were handled by the Matrix PlateMate Plus robot and replication of assay plates by the HummingBird robot.

Test [2] concerns the target T2, GST-JAK3(811-1124) (Homo sapiens, UniProt P52333).
T2 construct: GST-JAK3(811-1124); made in house
In words: EPK JAK-family kinases profiling assay (Caliper mobility shift), JAK3. The class given is biochemical. The conditions noted are these: ATP 80 μM, 6 nM kinase.
Excerpt: as §1, §2, §3, §4, §5, §6, §7, §8, §9, §10

Test [3] concerns the target T3, GST-JAK1(866-1154) (Homo sapiens, UniProt P23458).
T3 construct: GST-JAK1(866-1154); made in house
In words: EPK JAK-family kinases profiling assay (Caliper mobility shift), JAK1. The format is biochemical. The note with it: ATP 40 μM, 50 nM kinase.
Excerpt: as §1, §2, §3, §4, §5, §6, §7, §8, §9, §10

Test [4] deals with JAK/STAT pathway (JAK1/JAK2-dependent nuclear translocation of STAT1-GFP). In words: Inhibition of the JAK/STAT pathway: IFN-γ stimulated nuclear translocation of STAT1-GFP in HT1080 fibrosarcoma cells. The format is cell-based. The conditions noted are these: Homo sapiens, HT-1080; HT1080 STAT1-GFP cells, 100 ng/ml IFN-γ 2 hours, compound added 30 min before; read-out: STAT1translo IC50. The text has this: The medium-throughput (96-well format), robust and reproducible cellular assay can be routinely used to assess the functional activation of Janus Kinases (JAKs), based on the nuclear translocation of their substrate, Signal Transducer and Activator of Transcription (STAT). Nuclear translocation can be monitored in HT1080 fibrosarcoma cells stably transfected with STAT1 fused to Green Fluorescence Protein (GFP). Stimulation with interferon-γ (IFN-γ) results in JAK1/JAK2-dependent nuclear translocation of STAT1-GFP that can be quantified using the Cellomics Cyto/NucTrans software package. This assay may be used to provide an assessment of the nuclear-cytoplasmic differential (NCD) of GFP-STAT1 using Hoechst dye to define the boundaries of the nucleus.
Compounds can be dissolved in DMSO to a final stock concentration of 10 mM and stored as aliquots at 4° C. Compounds may be pre-diluted in 100% DMSO at 10 mM, 3 mM 1 mM, 0.3 mM, 0.1 mM, 0.03 mM, 0.01 mM and 0.003 mM. Subsequently, compounds may be diluted in medium and added in 50 μl to the cells. The final compound concentrations tested may be 10 μM, 3 μM 1 μM, 0.3 μM, 0.1 μM, 0.03 μM, 0.01 μM and 0.003 μM and the final DMSO concentration can be 0.1%.
The plates may then be washed once in PBS, and 200 μl PBS finally added per well. The plates, being finally covered with a black adhesive, may be either read directly or stored at 4° C. for later imaging. Where appropriate, the compounds may be added 30 min before stimulation with IFN-γ.
The plates can be read on a Cellomics® ArrayscanII automated fluorescence microscope plate reader equipped with a Mercury-Xenon white light illumination source and a Zeiss Axiovert inverted microscope, using the XF100 dichroic/emission filter cube and matching excitation filters, 10× magnification, and a 0.3 numerical aperture objective. Image acquisition and analysis can be performed using a customized protocol based on the ‘NuclearTranslocation’ Bioapplication (for details, see Appendices). For each well, multiple images (fields) can be acquired until a minimum of 1000 cells are counted using two 2 channels: Channel 1 (Hoechst)=focus+nuclear mask, Channel 2 (GFP)=signal quantification in mask areas as outlined below.
Nuclei may be first identified based on the Hoechst staining and a mask generated for each nucleus that then serves as a template to generate a circle (eroded inwards by 1 pixel) and a 3 pixel-wide collar-like ring (off-set outwards by 1 pixel), in which the nuclear and cytoplasmic intensity of GFP, respectively, are quantified in the corresponding channel. High content analysis yields numerous measurements per cell and the GPF intensity differential between the nuclear and the cytoplasmic masks may be chosen as a measure of sub-cellular GFP-STAT1 relocation. The resulting values may be averaged for all cells in the well to return a single measurement plus standard deviation.

A value given as a limit tells only on which side of the number the result lay.

T2 sequence (P52333 811-1124): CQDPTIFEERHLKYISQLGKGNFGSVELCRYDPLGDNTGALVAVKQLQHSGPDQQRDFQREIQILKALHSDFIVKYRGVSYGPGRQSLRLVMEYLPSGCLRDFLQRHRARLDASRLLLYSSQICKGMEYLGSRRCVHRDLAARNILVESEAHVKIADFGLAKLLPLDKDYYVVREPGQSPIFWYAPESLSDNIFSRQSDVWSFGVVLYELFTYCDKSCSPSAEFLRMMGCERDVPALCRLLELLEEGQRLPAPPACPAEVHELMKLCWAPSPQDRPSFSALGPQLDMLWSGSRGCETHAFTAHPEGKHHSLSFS
T1 sequence (O60674 808-1132): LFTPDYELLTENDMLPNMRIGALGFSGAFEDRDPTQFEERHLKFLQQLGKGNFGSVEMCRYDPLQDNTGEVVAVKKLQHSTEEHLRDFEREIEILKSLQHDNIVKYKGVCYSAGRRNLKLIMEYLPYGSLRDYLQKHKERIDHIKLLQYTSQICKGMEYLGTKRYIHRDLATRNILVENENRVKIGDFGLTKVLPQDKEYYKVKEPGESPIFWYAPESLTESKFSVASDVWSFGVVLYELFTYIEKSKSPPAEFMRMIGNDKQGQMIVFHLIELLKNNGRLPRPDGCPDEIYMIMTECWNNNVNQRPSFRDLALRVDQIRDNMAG
T3 sequence (P23458 866-1154): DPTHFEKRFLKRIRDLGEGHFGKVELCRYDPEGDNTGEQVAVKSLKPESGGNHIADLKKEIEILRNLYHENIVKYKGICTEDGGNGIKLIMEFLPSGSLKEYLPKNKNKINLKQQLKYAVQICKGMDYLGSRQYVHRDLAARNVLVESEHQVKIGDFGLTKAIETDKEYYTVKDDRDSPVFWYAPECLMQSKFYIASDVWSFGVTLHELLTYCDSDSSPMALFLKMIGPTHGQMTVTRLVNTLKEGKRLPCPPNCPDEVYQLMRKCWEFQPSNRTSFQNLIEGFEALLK

Consider `COCCOc1ccc(-c2cnc3cccc(-c4ccc(CC(=O)N5CCOCC5)c(F)c4)c3n2)cc1OC` [Example 49, 2-(2-Fluoro-4-{3-[3-methoxy-4-(2-methoxy-ethoxy)-phenyl]-quinoxalin-5-yl}-phenyl)-1-morpholin-4-yl-ethanone], for which the IC50 stood at 38 nM in test [1], 4400 nM in test [2], 260 nM in test [3] and 1220 nM in test [4].
In the same order, the values of `Cc1cc(-c2cnc3cccc(-c4ccc(CN5CCS(=O)(=O)CC5)c(F)c4)c3n2)ccc1C(=O)N(C)C` [Example 54, 4-{8-[4-(1,1-Dioxido-thiomorpholin-4-ylmethyl)-3-fluoro-phenyl]-quinoxalin-2-yl}-2,N,N-trimethyl-benzamide] are below 3 nM, 65 nM, 17 nM and 140 nM.
In the same order, the values of `COc1cc(-c2cnc3cccc(-c4ccc(CS(C)(=O)=O)cc4)c3n2)ccc1OCCN1CCOCC1` [Example 37, 8-(4-Methanesulfonylmethyl-phenyl)-2-[3-methoxy-4-(2-morpholin-4-yl-ethoxy)-phenyl]-quinoxaline] are 14 nM, 780 nM, 68 nM and 3080 nM.
The like results for `Cc1cc(-c2cnc3cccc(-c4ccc(CC(=O)N5CCS(=O)(=O)CC5)c(F)c4)c3n2)ccc1Cn1ccnc1` [Example 72, 1-(1,1-Dioxido-thiomorpholin-4-yl)-2-{2-fluoro-4-[3-(4-imidazol-1-ylmethyl-3-methyl-phenyl)-quinoxalin-5-yl]-phenyl}-ethanone] were, in that order, 5.7 nM, 670 nM, 110 nM and 1120 nM.
Take `Cc1cc(-c2cnc3cccc(-c4ccc(CN5CCS(=O)(=O)CC5)c(Cl)c4)c3n2)ccc1C(=O)N1CCOCC1` [Example 61, (4-{8-[3-Chloro-4-(1,1-dioxido-thiomorpholin-4-ylmethyl)-phenyl]-quinoxalin-2-yl}-2-methyl-phenyl)-morpholin-4-yl-methanone]: the IC50 worked out at 15 nM in test [1], 1400 nM in test [2], 165 nM in test [3] and 235 nM in test [4].
In the same order, the values of `O=C(Cc1ccc(-c2cccc3ncc(-c4ccc(N5CCOCC5)cc4)nc23)cc1)N1CCOCC1` [Example 45, 1-Morpholin-4-yl-2-{4-[3-(4-morpholin-4-yl-phenyl)-quinoxalin-5-yl]-phenyl}-ethanone] are 30 nM, 2200 nM, 190 nM and 2400 nM.
The like results for `Cc1cc(-c2cnc3cccc(-c4ccc(C(=O)N5CCCC5)c(C)c4)c3n2)ccc1C(=O)N1CCCC1` [Example 68, (2-Methyl-4-{3-[3-methyl-4-(pyrrolidine-1-carbonyl)-phenyl]-quinoxalin-5-yl}-phenyl)-pyrrolidin-1-yl-methanone] were, in that order, 109 nM, 6850 nM, 2300 nM and 4890 nM.
Regarding `Cc1cc(-c2cnc3cccc(-c4ccc(CN5CCOCC5)c(F)c4)c3n2)ccc1C(=O)N(C)C` [Example 56, 4-[8-(3-Fluoro-4-morpholin-4-ylmethyl-phenyl)-quinoxalin-2-yl]-2,N,N-trimethyl-benzamide], the IC50 in test [1] was 12 nM; in test [2] it was 570 nM; in test [3], 150 nM; in test [4], 471 nM.
The like results for `COc1cc(-c2cnc3cccc(-c4ccc(NS(C)(=O)=O)cc4)c3n2)ccc1OCCN1CCOCC1` [Example 36, N-(4-{3-[3-Methoxy-4-(2-morpholin-4-yl-ethoxy)-phenyl]-quinoxalin-5-yl}-phenyl)-methanesulfonamide] were, in that order, 17 nM, 940 nM, 41 nM and 3860 nM.
